The target of series [1] is T1, Genome polyprotein (West Nile virus, UniProt P06935). The experiment in a line: Inhibition of West Nile virus NS2B-NS3 protease preincubated for 1 hr followed by Pyr-RTKR-AMC addition and measured after 30 mins by fluorescence method.
The target in series [2] is thrombin (prothrombin) (Homo sapiens, UniProt P00734). The series can be described thus: Inhibition of human thrombin at 25 uM preincubated for 15 mins followed by Boc-Val-Pro-Arg-AMC addition and measured for 10 mins by continuous fluorimetric assay relative to control. The settings on record: human thrombin enzyme, probe Boc-Val-Pro-Arg-AMC.
Series [3] has as its target T2, Nonstructural protein 3 (Zika virus, UniProt A0A024AXB9). The series can be described thus: Inhibition of Zika virus unlinked NS2B-NS3 protease preincubated for 5 mins followed by benzoyl-nKRR-AMC addition and measured every 60 secs for 12 mins by fluorescence method.
The target of series [4] is T1, Genome polyprotein. The experiment in a line: Inhibition of West Nile virus NS2B (47 residues)-NS3 (184 residues) protease expressed in Escherichia coli BL21 (DE3) preincubated for 15 mins followed by Benzoyl-Nle-KRR-AMC addition and measured after 30 mins by fluorescence method.
For series [5], the target named is T2, Nonstructural protein 3. The series can be described thus: Inhibition of Zika virus IbH_30656 NS2B (45 to 96 residues)-NS3 (1 to 177 residues) protease expressed in Escherichia coli BL21/Rosetta (DE3) cells preincubated for 60 mins followed by Bz-nKRR-AMC addition and measured at 60 secs intervals over 10 mins by fluorescence method.
Series [6] concerns the target T2, Nonstructural protein 3. The series can be described thus: Inhibition of N-terminal His6-SUMO tagged Zika virus Puerto Rico NS2B-NS3 linked protease expressed in Escherichia coli BL21 Codon Plus (DE3) cells preincubated for 10 mins followed by pyr-TGKR-AMC addition and measured every 5 secs for 2 mins by fluorometric enzyme assay.
The target in series [7] is T2, Nonstructural protein 3. The experiment in a line: Inhibition of N-terminal His6-SUMO tagged Zika virus Puerto Rico NS2B-NS3 unlinked protease expressed in Escherichia coli BL21 Codon Plus (DE3) cells preincubated for 10 mins followed by pyr-TGKR-AMC addition and measured every 5 secs for 2 mins by fluorometric enzyme assay.
Series [8] concerns the target T2, Nonstructural protein 3. The experiment in a line: Inhibition of N-terminal His6-SUMO tagged Zika virus Puerto Rico NS2B-NS3 unlinked protease expressed in Escherichia coli BL21 Codon Plus (DE3) cells preincubated for 90 mins followed by pyr-TGKR-AMC addition and measured every 5 secs for 2 mins by fluorometric enzyme assay.
The target in series [9] is T3, Genome polyprotein (dengue virus type 2, UniProt P29990). The experiment in a line: Inhibition of Dengue virus serotype 2 NS2B(40 residues)-NS3 (185 residues) protease preincubated for 30 mins followed by ABz-nKRR-AMC addition and measured after 30 mins by fluorescence method.
In series [10] the target is T1, Genome polyprotein. The series can be described thus: Inhibition of West Nile virus protease.
Series [11] deals with Genome polyprotein. The series can be described thus: Inhibition of Dengue virus serotype 1 NS2B-NS3 protease preincubated for 20 mins followed by Abz-RRRRSAG-nY-NH2 addition and measured for 60 mins by fluorescence method. Details: species or system dengue virus type 1.
Target sequence in this assay (P29990 1346-1475 limits assumed): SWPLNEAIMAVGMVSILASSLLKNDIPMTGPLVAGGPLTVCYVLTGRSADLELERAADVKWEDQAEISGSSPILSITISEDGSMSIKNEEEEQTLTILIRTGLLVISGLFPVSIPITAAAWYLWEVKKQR
Target sequence in this assay (P29990 1476-2093 limits assumed): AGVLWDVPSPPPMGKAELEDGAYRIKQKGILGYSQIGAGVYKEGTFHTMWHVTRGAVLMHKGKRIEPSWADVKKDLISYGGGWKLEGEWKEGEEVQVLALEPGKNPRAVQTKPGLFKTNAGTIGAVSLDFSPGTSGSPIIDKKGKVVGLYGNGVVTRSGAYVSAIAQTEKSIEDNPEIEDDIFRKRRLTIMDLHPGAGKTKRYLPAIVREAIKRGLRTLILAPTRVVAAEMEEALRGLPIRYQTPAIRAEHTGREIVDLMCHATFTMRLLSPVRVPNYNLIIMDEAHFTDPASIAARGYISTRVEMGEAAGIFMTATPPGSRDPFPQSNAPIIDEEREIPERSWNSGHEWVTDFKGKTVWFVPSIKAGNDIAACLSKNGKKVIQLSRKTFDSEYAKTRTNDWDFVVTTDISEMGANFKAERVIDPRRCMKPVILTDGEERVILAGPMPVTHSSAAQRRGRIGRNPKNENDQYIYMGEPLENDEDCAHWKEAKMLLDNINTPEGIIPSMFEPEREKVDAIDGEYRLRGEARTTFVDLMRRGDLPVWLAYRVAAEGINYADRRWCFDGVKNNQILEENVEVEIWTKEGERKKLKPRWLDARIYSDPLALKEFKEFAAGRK
For series [12], the target named is T3, Genome polyprotein. The series can be described thus: Inhibition of Dengue virus serotype 2 NS2B-NS3 protease preincubated for 20 mins followed by Abz-RRRRSAG-nY-NH2 addition and measured for 60 mins by fluorescence method.
For series [13], the target named is T1, Genome polyprotein. The experiment in a line: Inhibition of West Nile virus NS2B-NS3 protease preincubated for 10 mins followed by Np-KKR-pNA addition and measured every 5 secs for 2 mins by fluorescence method.

The source of these data is ChEMBL document CHEMBL4354802, “Peptide derivatives as inhibitors of NS2B-NS3 protease from Dengue, West Nile, and Zika flaviviruses” (Bioorg Med Chem, 2019).

What is called IC50 is the concentration that inhibits the measured activity by half. For orientation: Ki means the dissociation constant of the complex between target and ligand, obtained from inhibition or displacement. The inhibition is the share of the control response that was lost under treatment. Low readings indicate little suppression, high ones strong suppression.

Non-standard residues stand in square brackets, D forms with d. Residues, ends and D or L forms follow the SMILES beside them. ξ: configuration not given here. *: point of attachment. Trp(5-NO2) = N[C@@H](Cc1c[nH]c2ccc([N+](=O)[O-])cc12)C(=O)O; Gly(2-naphthyl) = N[C@H](C(=O)O)c1ccc2ccccc2c1; ξR = N=C(N)NCCCC(N)C(=O)O; 2Abz = Nc1ccccc1C(=O)O; PhAc = O=C(Cc1ccccc1)*

T2 sequence (A0A024AXB9 whole entry): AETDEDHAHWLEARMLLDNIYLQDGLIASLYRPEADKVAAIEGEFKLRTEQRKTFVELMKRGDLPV
T3 sequence (P29990 1346-1475 limits assumed): as the sequence (P29990 1346-1475 limits assumed) above
T3 sequence (P29990 1476-2093 limits assumed): as the sequence (P29990 1476-2093 limits assumed) above
T1 sequence (P06935 1371-1501 limits assumed): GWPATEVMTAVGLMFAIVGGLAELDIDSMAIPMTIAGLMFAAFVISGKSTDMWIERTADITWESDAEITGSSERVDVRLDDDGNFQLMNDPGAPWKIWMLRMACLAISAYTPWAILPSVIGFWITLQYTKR
T1 sequence (P06935 1502-2120 limits assumed): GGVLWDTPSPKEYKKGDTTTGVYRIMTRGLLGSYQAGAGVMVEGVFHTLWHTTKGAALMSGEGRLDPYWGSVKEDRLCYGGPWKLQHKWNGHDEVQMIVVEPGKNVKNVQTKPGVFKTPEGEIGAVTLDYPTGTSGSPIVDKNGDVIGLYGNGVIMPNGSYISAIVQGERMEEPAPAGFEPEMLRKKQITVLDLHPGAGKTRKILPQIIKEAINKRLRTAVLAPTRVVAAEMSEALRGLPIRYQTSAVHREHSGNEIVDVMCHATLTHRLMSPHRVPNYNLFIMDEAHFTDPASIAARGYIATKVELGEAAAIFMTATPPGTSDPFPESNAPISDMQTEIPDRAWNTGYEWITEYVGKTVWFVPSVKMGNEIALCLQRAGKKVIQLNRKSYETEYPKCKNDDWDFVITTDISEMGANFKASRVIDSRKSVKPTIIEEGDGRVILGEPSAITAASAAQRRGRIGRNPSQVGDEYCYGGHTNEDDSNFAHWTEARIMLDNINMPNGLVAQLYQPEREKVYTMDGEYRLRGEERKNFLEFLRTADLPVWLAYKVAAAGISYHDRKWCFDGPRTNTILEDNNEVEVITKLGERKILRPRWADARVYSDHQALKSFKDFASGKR

For `CC(=O)N[C@@H](CCCCN)C(=O)N[C@@H](CCCCN)C(=O)NCCCCNC(=N)N`, in series [1], the IC50 came to 18.7 µM and the Ki was determined as 4.9 µM.

`CCCC[C@H](NC(=O)[C@H](CCCCN)NC(=O)[C@H](CCCNC(=N)N)NC(=O)c1ccc(/C=C(\C#N)C(=O)NC2CC2)cc1)C(N)=O`: the inhibition at 10 min, 25 µM in series [2] amounted to 13.4%.

For `N=C(N)NCCC[C@H](NC(=O)[C@H](CCCCN)NC(=O)[C@H](CCCCN)NC(=O)Cc1ccc(CNC(=N)N)cc1)C(N)=O`, in series [3], the IC50 was 1.6 µM and affinity was put at a Ki of 0.6 µM.

On to `N=C(N)NCCCC(C=O)NC(=O)[C@H](CCCCN)NC(=O)c1ncc[nH]1` (stereo not given in full), for which the inhibition constant (Ki) in series [4] came out at 0.12 µM.

In series [5], `[H]/N=C(\N)NCCC[C@@H](C=O)NC(=O)[C@H](CCCCN)NC(C)=O` displayed an IC50 of 0.28 µM.

Take `N=C(N)NCCC[C@H](NC(=O)c1nccs1)C(=O)N[C@@H](CCCCN)C(=O)N[C@H](C(N)=O)c1ccc(OCc2ccc(C(F)(F)F)cc2)cc1`: the results for the concentration for half-maximal inhibition (IC50) in series [6], in [7] and in series [8] were 1.04 µM, 1.06 µM and 1.35 µM, respectively.

In series [3], `N=C(N)NCCC[C@H](NC(=O)Cc1ccc(CNC(=N)N)cc1)C(=O)N[C@@H](CCCNC(=N)N)C(=O)N[C@@H](CCCNC(=N)N)C(=O)NCc1ccc(C(=N)N)cc1` yielded an IC50 of 1.1 µM and a Ki of 0.43 µM.

With `N=C(N)NCCC[C@@H](C=O)NC(=O)[C@H](CCCCN)NC(=O)[C@H](CCCCN)NC(=O)Cc1ccc(-c2ccccc2)cc1`, the IC50 came to 12.2 µM in series [9] and 0.056 µM in series [10].

As to `CC(=O)N[C@@H](CCCNC(=N)N)C(=O)N[C@@H](CCCNC(=N)N)C(=O)N[C@@H](CCCNC(=N)N)C(=O)N[C@@H](CCCNC(=N)N)C(=O)N[C@@H](Cc1cnc[nH]1)C(=O)N[C@@H](Cc1c[nH]c2ccccc12)C(=O)N[C@@H](CS)C(=O)N[C@@H](Cc1c[nH]c2ccccc12)C(N)=O` (Ac-RRRRHWCW-NH2), the Ki was 0.4 µM in series [11] and 0.3 µM in series [12].

As to `N=C(N)NCCCC(NC(=O)[C@H](CCCCN)NC(=O)[C@H](CCCCN)NC(=O)[C@@H](NC(=O)[C@H](Cc1c[nH]cn1)NC(=O)CNC(=O)CN)c1ccc2ccccc2c1)C(N)=O` (stereo not given in full) (H-GGH[Gly(2-naphthyl)]KK[ξR]-NH2), in series [13], the Ki stood at 8 µM.

In the case of `CC(C)C[C@H](NC(=O)[C@H](Cc1cnc[nH]1)NC(=O)[C@H](CCCNC(=N)N)NC(=O)[C@H](CCCNC(=N)N)NC(=O)[C@H](CCCNC(=N)N)NC(=O)[C@@H](N)CCCNC(=N)N)C(=O)N[C@@H](CS)C(=O)N[C@@H](Cc1c[nH]c2ccccc12)C(N)=O` (H-RRRRHLCW-NH2), the Ki was 0.3 µM in series [11] and 0.4 µM in series [12].

`N=C(N)NCCC[C@H](NC(=O)[C@H](CCCNC(=N)N)NC(=O)[C@H](CCCNC(=N)N)NC(=O)[C@@H](N)CCCNC(=N)N)C(=O)N[C@@H](Cc1cnc[nH]1)C(=O)N[C@@H](Cc1c[nH]c2ccccc12)C(=O)N[C@@H](CS)C(=O)N[C@@H](Cc1c[nH]c2ccccc12)C(N)=O` (H-RRRRHWCW-NH2): the inhibition constant Ki in series [11] came to 0.4 µM; in [12], 0.3 µM.

As for `CC(C)C[C@H](NC(=O)[C@H](Cc1cnc[nH]1)NC(=O)[C@H](CCCNC(=N)N)NC(=O)[C@H](CCCNC(=N)N)NC(=O)[C@H](CCCNC(=N)N)NC(=O)[C@H](CCCNC(=N)N)NC(=O)c1ccccc1N)C(=O)N[C@@H](CS)C(=O)N[C@@H](Cc1c[nH]c2ccc([N+](=O)[O-])cc12)C(N)=O` (H-[2Abz]RRRRHLC[Trp(5-NO2)]-NH2), the Ki was 0.3 µM in series [11] and 1.1 µM in [12].

As to `N=C(N)NCCC[C@H](NC(=O)[C@H](CCCCN)NC(=O)[C@H](CCCCN)NC(=O)Cc1ccccc1)C(=O)NCC(=O)NCC(N)=O` (PhAc-KKRGG-NH2), in [3], half-maximal inhibition (IC50) required 1.2 µM and the Ki was found to be 0.47 µM.
